Reference: patent publication US10696685B2, “Polyketides, methods of use and preparation” (Universiteit Leiden, priority 2015, dated 2020)
Entries after “also recorded” stand apart in the source; their conditions may differ.

How the values were obtained:
[1] = test system: Escherichia coli JM109; experiment: Disk diffusion antimicrobial activity assay, Escherichia coli JM109; format: cell-based; settings: paper disk, 25 μL of 2 μg/μL in chloroform (lugdunomycin: 10 μL of 1 μg/μL in methanol); 37° C., 18 h; FIG. 6 B, D
Source text: (§1) Streptomyces sp. QL37 was isolated from soil in the Qinling mountains (P. R. China) soil as described previously (Zhu et al, 2014b). The previously undescribed strain was deposited to the collection of the Centraal Bureau voor Schimmelcultures (CBS) in Utrecht, The Netherlands. Streptomyces sp. QL37 was cultivated on Minimal Medium agar plates (MM) (Kieser et al., 2000) with 0.5% glycerol and 1% mannitol (w/v) as the carbon sources, on R5 agar supplemented with 0.8% peptone and 1% mannitol (w/v), or to prepare spore suspensions on SFM agar plates (Soy flour man nitol; (Kieser et al., 2000)). Square agar plates (12 cm×12 cm) were inoculated with 1×10^7 spores from a fresh spore suspension. As indicator strains for the antibacterial assays we used B. subtilis 168 and E. coli JM109 (Sambrook et al., 1989).
(§2) Antimicrobial activity was determined using a disk diffusion assay. For this, compounds were dissolved in chloroform to a concentration of (2 μg/μL) and of this solution, 25 μL was applied on a paper disk (GE Healthcare Bio-Sciences, Pittsburgh), except for lugdunomycin, for which 10 μL of a 1 μg/μL solution in methanol was used. […] After incubation at 37° C. for 18 h, growth inhibition zones (in mm) were recorded as antimicrobial activity.

[2] = test system: Bacillus subtilis 168; experiment: Disk diffusion antimicrobial activity assay, Bacillus subtilis 168; format: cell-based; settings: paper disk, 25 μL of 2 μg/μL in chloroform (lugdunomycin: 10 μL of 1 μg/μL in methanol), 37° C., 18 h, FIG. 6 A
Source text: as §1, §2

COc1cccc2c1[C@@H](O)[C@]13C[C@@H](O)C[C@]1(C(=O)NC3=O)[C@]21Oc2cc(C)cc3ccc(O)c1c23 [Lugdunomycin (1), lugdunomycin]
antimicrobial activity (growth inhibition) against Gram-negative Escherichia coli JM109 [1]: not against
antimicrobial activity (growth inhibition) against Gram-positive Bacillus subtilis [2]: showed inhibition efficacy; also recorded: showed antimicrobial activity
